Values quoted from earlier work as cited in patent US6797282B2, “Combination progestin oral contraceptive regimen” (Ortho-McNeil Pharmaceutical, Inc., priority 1997, dated 2004).

Tested on: endometrium
Conditions: primates; Wilborn et al 1984

C#C[C@]1(OC(C)=O)CC[C@H]2[C@@H]3CCC4=CC(=NO)CC[C@@H]4[C@H]3CC[C@@]21CC (mixture of isomers) [Norgestimate]
effect on endometrium in comparison to other progestins: endometrial sparing effect
